In the NIST ThermoML archive (doi:10.1016/j.fluid.2016.02.009):

Conditions: Liquid, Vibrating tube method

CCCOCCC [dipropyl ether]
Conditions	mass density [kg/m3]
283.15 K, 100 kPa	757.39
283.15 K, 5000 kPa	762.38
283.15 K, 10000 kPa	767.05
283.15 K, 15000 kPa	771.45
283.15 K, 20000 kPa	775.62
283.15 K, 25000 kPa	779.52
283.15 K, 30000 kPa	783.28
283.15 K, 35000 kPa	786.9
283.15 K, 40000 kPa	790.38
283.15 K, 45000 kPa	793.67
283.15 K, 50000 kPa	796.87
283.15 K, 55000 kPa	800.02
283.15 K, 60000 kPa	802.99
283.15 K, 65000 kPa	805.87
288.15 K, 100 kPa	752.52
288.15 K, 5000 kPa	757.69
288.15 K, 10000 kPa	762.5
288.15 K, 15000 kPa	767.01
288.15 K, 20000 kPa	771.21
288.15 K, 25000 kPa	775.22
288.15 K, 30000 kPa	779.05
288.15 K, 35000 kPa	782.73
288.15 K, 40000 kPa	786.26
288.15 K, 45000 kPa	789.68
288.15 K, 50000 kPa	792.99
288.15 K, 55000 kPa	796.16
288.15 K, 60000 kPa	799.26
288.15 K, 65000 kPa	802.29
293.15 K, 100 kPa	747.63
293.15 K, 5000 kPa	752.98
293.15 K, 10000 kPa	757.94
293.15 K, 15000 kPa	762.58
293.15 K, 20000 kPa	766.89
293.15 K, 25000 kPa	771.01
293.15 K, 30000 kPa	774.94
293.15 K, 35000 kPa	778.69
293.15 K, 40000 kPa	782.3
293.15 K, 45000 kPa	785.81
293.15 K, 50000 kPa	789.18
293.15 K, 55000 kPa	792.44
293.15 K, 60000 kPa	795.56
293.15 K, 65000 kPa	798.64
298.15 K, 100 kPa	742.71
298.15 K, 5000 kPa	748.24
298.15 K, 10000 kPa	753.37
298.15 K, 15000 kPa	758.15
298.15 K, 20000 kPa	762.57
298.15 K, 25000 kPa	766.81
298.15 K, 30000 kPa	770.85
298.15 K, 35000 kPa	774.71
298.15 K, 40000 kPa	778.42
298.15 K, 45000 kPa	781.98
298.15 K, 50000 kPa	785.42
298.15 K, 55000 kPa	788.74
298.15 K, 60000 kPa	791.97
298.15 K, 65000 kPa	795.06
303.15 K, 100 kPa	737.77
303.15 K, 5000 kPa	743.49
303.15 K, 10000 kPa	748.78
303.15 K, 15000 kPa	753.68
303.15 K, 20000 kPa	758.26
303.15 K, 25000 kPa	762.61
303.15 K, 30000 kPa	766.76
303.15 K, 35000 kPa	770.7
303.15 K, 40000 kPa	774.48
303.15 K, 45000 kPa	778.13
303.15 K, 50000 kPa	781.64
303.15 K, 55000 kPa	785.01
303.15 K, 60000 kPa	788.28
303.15 K, 65000 kPa	791.45
308.15 K, 100 kPa	732.8
308.15 K, 5000 kPa	738.69
308.15 K, 10000 kPa	744.18
308.15 K, 15000 kPa	749.22
308.15 K, 20000 kPa	753.95
308.15 K, 25000 kPa	758.41
308.15 K, 30000 kPa	762.65
308.15 K, 35000 kPa	766.7
308.15 K, 40000 kPa	770.6
308.15 K, 45000 kPa	774.31
308.15 K, 50000 kPa	777.92
308.15 K, 55000 kPa	781.37
308.15 K, 60000 kPa	784.7
308.15 K, 65000 kPa	787.86
313.15 K, 100 kPa	727.8
313.15 K, 5000 kPa	733.9
313.15 K, 10000 kPa	739.57
313.15 K, 15000 kPa	744.77
313.15 K, 20000 kPa	749.62
313.15 K, 25000 kPa	754.2
313.15 K, 30000 kPa	758.55
313.15 K, 35000 kPa	762.71
313.15 K, 40000 kPa	766.68
313.15 K, 45000 kPa	770.47
313.15 K, 50000 kPa	774.17
313.15 K, 55000 kPa	777.67
313.15 K, 60000 kPa	781.06
313.15 K, 65000 kPa	784.29
318.15 K, 100 kPa	722.77
318.15 K, 5000 kPa	729.04
318.15 K, 10000 kPa	735.01
318.15 K, 15000 kPa	740.33
318.15 K, 20000 kPa	745.32
318.15 K, 25000 kPa	750.04
318.15 K, 30000 kPa	754.51
318.15 K, 35000 kPa	758.76
318.15 K, 40000 kPa	762.84
318.15 K, 45000 kPa	766.72
318.15 K, 50000 kPa	770.47
318.15 K, 55000 kPa	774.07
318.15 K, 60000 kPa	777.53
318.15 K, 65000 kPa	780.73
323.15 K, 100 kPa	717.7
323.15 K, 5000 kPa	724.25
323.15 K, 10000 kPa	730.31
323.15 K, 15000 kPa	735.84
323.15 K, 20000 kPa	741
323.15 K, 25000 kPa	745.84
323.15 K, 30000 kPa	750.43
323.15 K, 35000 kPa	754.79
323.15 K, 40000 kPa	758.96
323.15 K, 45000 kPa	762.93
323.15 K, 50000 kPa	766.76
323.15 K, 55000 kPa	770.41
323.15 K, 60000 kPa	773.95
323.15 K, 65000 kPa	777.21
328.15 K, 100 kPa	712.59
328.15 K, 5000 kPa	719.28
328.15 K, 10000 kPa	725.68
328.15 K, 15000 kPa	731.37
328.15 K, 20000 kPa	736.67
328.15 K, 25000 kPa	741.66
328.15 K, 30000 kPa	746.37
328.15 K, 35000 kPa	750.85
328.15 K, 40000 kPa	755.1
328.15 K, 45000 kPa	759.16
328.15 K, 50000 kPa	763.06
328.15 K, 55000 kPa	766.79
328.15 K, 60000 kPa	770.38
328.15 K, 65000 kPa	773.71
333.15 K, 100 kPa	707.45
333.15 K, 5000 kPa	714.57
333.15 K, 10000 kPa	721.03
333.15 K, 15000 kPa	726.88
333.15 K, 20000 kPa	732.34
333.15 K, 25000 kPa	737.47
333.15 K, 30000 kPa	742.3
333.15 K, 35000 kPa	746.89
333.15 K, 40000 kPa	751.24
333.15 K, 45000 kPa	755.35
333.15 K, 50000 kPa	759.32
333.15 K, 55000 kPa	763.16
333.15 K, 60000 kPa	766.84
333.15 K, 65000 kPa	770.23
